What all share (type): cell-based, human
For assay [1], the system named is CD4+ T cell lines killing peptide pulsed autologous EBV-transformed B cell lines. Put plainly: Chromium release assay, perforin-dependent cytotoxicity of CD4+ T cell lines. The settings on record: CD4+ T cells incubated 2 h with 100 nM concanamycin; 51Cr release; FIG. 7b.
Assay [2] concerns T cells in PBMC of H3N2 (A/Wisconsin/67/05) challenge study subjects. The settings on record: for SFC/million PBMC (range): IFN-γ ELISPOT, peptide 2 μg/ml, 300,000 PBMC/well, background subtracted; for SFC/million PBMC (range) / CD4 or CD8 dependency: baseline samples; for CD4 or CD8 dependency: second ELISPOT after CD8 depletion, 4 = CD4, 8 = CD8; for Number positive (%): percent of subjects responding to the peptide at baseline; for Number positive: subjects responding to the peptide at baseline, of 8 subjects with peptides identified.

For assay [3], the system named is T cells in PBMC of H1N1 (A/Brisbane/59/07) challenge study subjects. The settings on record: for SFC/million PBMC (range): IFN-γ ELISPOT, peptide 2 μg/ml, 300,000 PBMC/well, background subtracted; for Positive no(%): percent of subjects responding to the peptide at baseline; for Positive no: subjects responding to the peptide at baseline, of 7 subjects.
[4] abbreviates: baseline samples, second ELISPOT after CD8 depletion, 4 = CD4, 8 = CD8.

Results on 18 compounds are retold here after patent US9833506B2, “Vaccine—screening method” (priority 2011, dated 2017).

Where two headings read alike, the source gives them in different places.

`C/C=C/[C@H]1O[C@@](O)([C@@H](C)[C@H](O)[C@H](C)[C@H]2OC(=O)/C(OC)=C/C(C)=C/[C@@H](C)[C@@H](O)[C@@H](CC)[C@@H](O)[C@H](C)C/C(C)=C/C=C/[C@@H]2OC)C[C@@H](O)[C@@H]1C` [concanamycin]: in assay [1], the “Sensitivity of CD4 T cell killing of autologous target cells to concanamycin” value is given as “sensitive”.

For the compound EIRASVGKMIDGIGRFYI [NP05], in assay [2], the “SFC/million PBMC (range)” value is 141.5 (35-248) SFC/million PBMC, the “CD4 or CD8 dependency” value is on record as 4, the “Number positive (%)” value is reported as 26% and the Number positive is reported as 2.

On to GENGRKTRIAYERMCNIL [NP27], for which, in assay [3], the “CD4 or CD8 dependency” value was 8; the “SFC/million PBMC, days after challenge 7” value amounted to 157 SFC/million PBMC; the “SFC/million PBMC, days after challenge 28” value is on record as 10 SFC/million PBMC; the “SFC/million PBMC, days after challenge −2” value is listed as 30 SFC/million PBMC. In assay [3], the “Positive no(%)” value turned out to be 14% and the Positive no was 1. Moreover, the “SFC/million PBMC (range)” value in assay [3] (baseline samples) turned out to be 30 SFC/million PBMC. Besides, in assay [3] (setting [4]), the “CD4 or CD8 dependency” value came out at 8.

With GKWMRELVLYDKEEIRRI [NP15], in assay [2], the “SFC/million PBMC (range)” value is 93 (45-141) SFC/million PBMC, the “CD4 or CD8 dependency” value turned out to be 4, the “Number positive (%)” value amounted to 26% and the Number positive is recorded as 2.

For the compound GQTSVQPTFSVQRNLPF [NP57], in assay [2], the “SFC/million PBMC (range)” value is reported as 10 SFC/million PBMC, the “CD4 or CD8 dependency” value turned out to be 4, the “Number positive (%)” value stood at 13% and the Number positive is 1.

With HRSHRQMVATTNPLIKH [Peptide M23], in assay [2], the “SFC/million PBMC (range)” value was 158 SFC/million PBMC, the “CD4 or CD8 dependency” value was determined as 4, the “Number positive (%)” value came out at 13% and the Number positive turned out to be 1.

Take “IAYERMCNILKGKFQTAA (Influenza A virus) [NP28, synthetic peptide of H1N1 influenza A NP protein, amino acid position 217-234]”: in assay [3], the “CD4 or CD8 dependency” value amounted to 8; the “SFC/million PBMC, days after challenge 7” value is 67 SFC/million PBMC; the “SFC/million PBMC, days after challenge 28” value is reported as 10 SFC/million PBMC; the “SFC/million PBMC, days after challenge −2” value turned out to be 40 SFC/million PBMC. Besides, in assay [3], the “Positive no(%)” value was found to be 14% and the Positive no stood at 1. Further, in assay [3] (baseline samples), the “SFC/million PBMC (range)” value was determined as 40 SFC/million PBMC. The “CD4 or CD8 dependency” value in assay [3] (setting [4]) was determined as 8.

For “IKHENRMVLASTTAKAM (Influenza A virus) [Peptide M25, synthetic peptide of H3N2 influenza A M protein, amino acid position 173-189]”, in assay [2], the “SFC/million PBMC (range)” value is 118 SFC/million PBMC, the “CD4 or CD8 dependency” value is 4, the “Number positive (%)” value is given as 13% and the Number positive is 1.

Regarding “KFQTAAQRAMVDQVRESR (Influenza A virus) [NP32, synthetic peptide of H3N2 influenza A NP protein, amino acid position 229-246]”, in assay [2], the “SFC/million PBMC (range)” value is 104 SFC/million PBMC, the “CD4 or CD8 dependency” value was 8, the “Number positive (%)” value is on record as 13% and the Number positive is 1.

As to KLSDHEGRLIQNSLTIEK [NP08], in assay [2], the “SFC/million PBMC (range)” value is recorded as 26 SFC/million PBMC, the “CD4 or CD8 dependency” value was 4, the “Number positive (%)” value worked out at 13% and the Number positive is recorded as 1.

For LKREITFHKAKEIALSY [Peptide M15], in assay [2], the “SFC/million PBMC (range)” value is given as 67 (35-96) SFC/million PBMC, the “CD4 or CD8 dependency” value was found to be 4, the “Number positive (%)” value was 38% and the Number positive came out at 3.

Regarding PIYRRVDGKWMRELVLY [NP14], in assay [2], the “SFC/million PBMC (range)” value is reported as 113 (45-181) SFC/million PBMC, the “CD4 or CD8 dependency” value was 4, the “Number positive (%)” value is recorded as 26% and the Number positive is 2.

As to QPTFSVQRNLPFDKTTIM [NP52], the “SFC/million PBMC (range)” value in assay [3] (baseline samples) was 26 SFC/million PBMC. Also, in assay [3] (setting [4]), the “CD4 or CD8 dependency” value is 4. In assay [3], the “Positive no(%)” value came out at 14% and the Positive no came to 1. In addition, in assay [3] (subject B017(2C)), the “CD4 or CD8 dependency” value is 4. In addition, in assay [3] (subject B017(2C), day 7), the “SFC/million PBMC, days after challenge 7” value stood at 76 SFC/million PBMC. Moreover, the “SFC/million PBMC, days after challenge 28” value in assay [3] (subject B017(2C), day 28) is listed as 10 SFC/million PBMC. The “SFC/million PBMC, days after challenge −2” value in assay [3] (subject B017(2C), day −2) is 26 SFC/million PBMC.

As for “RMVLSAFDERRNKYLEEH (Influenza A virus) [NP09, synthetic peptide of H1N1 influenza A NP protein, amino acid position 65-82]”, in assay [3], the “CD4 or CD8 dependency” value was determined as 4; the “SFC/million PBMC, days after challenge 7” value was found to be 187 SFC/million PBMC; the “SFC/million PBMC, days after challenge 28” value worked out at 113 SFC/million PBMC; the “SFC/million PBMC, days after challenge −2” value was 38 SFC/million PBMC. Also, in assay [3], the “Positive no(%)” value is given as 14% and the Positive no is 1. Also, the “SFC/million PBMC (range)” value in assay [3] (baseline samples) is 38 SFC/million PBMC. In assay [3] (setting [4]), the “CD4 or CD8 dependency” value turned out to be 4.

“SNLNDATYQRTRALVR (Influenza A virus) [NP20, synthetic peptide of H3N2 influenza A NP protein, amino acid position 141-156]”: in assay [2], the “SFC/million PBMC (range)” value is recorded as 391 SFC/million PBMC, the “CD4 or CD8 dependency” value came to 8, the “Number positive (%)” value came out at 13% and the Number positive stood at 1.

Take TFSVQRSLPFEKSTIMAA [NP58]: in assay [2], the “SFC/million PBMC (range)” value is recorded as 10 SFC/million PBMC, the “CD4 or CD8 dependency” value worked out at 4, the “Number positive (%)” value came to 13% and the Number positive stood at 1.

Consider “TYQRTRAVLRTGMDPRM (TYQRTRALVRTGMDPRM; Influenza A virus) [NP21, synthetic peptide of H3N2 influenza A NP protein, amino acid position 147-163]”, for which, in assay [2], the “SFC/million PBMC (range)” value is recorded as 331 SFC/million PBMC, the “CD4 or CD8 dependency” value came to 8, the “Number positive (%)” value is 13% and the Number positive was found to be 1.

Consider “VKLYRKLKREITFHGAKE (Influenza A virus) [Peptide M13, synthetic peptide of H1N1 influenza A M protein, amino acid position 97-114]”, for which, in assay [3], the “CD4 or CD8 dependency” value is recorded as 4; the “SFC/million PBMC, days after challenge 7” value amounted to 70 SFC/million PBMC; the “SFC/million PBMC, days after challenge 28” value is on record as 10 SFC/million PBMC; the “SFC/million PBMC, days after challenge −2” value is 30 SFC/million PBMC. In assay [3], the “Positive no(%)” value was determined as 28% and the Positive no was 2. In addition, the “SFC/million PBMC (range)” value in assay [3] (baseline samples) is listed as 41 (30-52) SFC/million PBMC. Further, the “CD4 or CD8 dependency” value in assay [3] (setting [4]) was 4. The “CD4 or CD8 dependency” value in assay [3] (subject B017(2C)) is given as 4. For the same compound, the “SFC/million PBMC, days after challenge 7” value in assay [3] (subject B017(2C), day 7) worked out at 316 SFC/million PBMC. For the same compound, the “SFC/million PBMC, days after challenge 28” value in assay [3] (subject B017(2C), day 28) stood at 33 SFC/million PBMC. Moreover, in assay [3] (subject B017(2C), day −2), the “SFC/million PBMC, days after challenge −2” value is 52 SFC/million PBMC.
